# In patent publication US9463174B2, “Pharmaceutical composition for the treatment of type-1 diabetes” (priority 2008, dated 2016):
# Entries after “also recorded” stand apart in the source; their conditions may differ.
# System: 8.3-TCR NOD mice
# Test: Prevention of diabetes in transgenic 8.3-TCR NOD mice
# Assay type: in vivo
# Excerpt: TCR NOD mice were used to investigate the potential role of GABA on the T-cell function. The 8.3-TCR NOD mouse is a severe T1D mouse model (Amrani A et al, 1999 Clin Invest. 103(8):1201-9) and developed diabetic hyperglycemia at about age of 11 wks (FIG. 8A). Autoimmune diabetes in NOD mice results from destruction of pancreatic b-cells by T lymphocytes. The CD8+ cytotoxic T lymphocytes is thought to be the initial beta-cell insult in diabetes in which the initiation is a Fas-dependent process (Amrani A et al, 1999 Clin Invest. 103(8):1201-9). The 8.3-TCR NOD mouse monoclonal T-cells bearing a T-cell receptor (8.3-TCR) that is representative of TCRs used by CD8+ cytotoxic T lymphocytes propagated from the earliest insulitic lesions of NOD mice.
# GAD65 has long been considered as a major antigen initiating the pathogenesis in T1D. Given that the protective effects of GABA in the development of diabetes in the diabetic animal models, I proposed that as the rate limiting enzyme of GABA synthesis, GAD has important role in maintaining islet function. To determine if treatment of GABA has effects on the expression levels of GAD65, we performed pancreatic GAD staining in the TCR transgenic NOD mice.
# The techniques used for the in vivo and in vitro studies in this embodiment of the disclosure are also described. CD1 mice (Charles River Laboratories, St Constant, Canada), NOD mice and transgenic TCR NOD mice (Jackson Laboratory, USA) were housed under a controlled temperature and a 12-h light/12-h dark cycle in the St. Michael's Hospital Animal facility with free access to food (normal rodent chow) and water, except where noted. All procedures were conducted according to protocols and guidelines approved by the Canadian Council of Animal Care and the St. Michael's Hospital Animal Care committee. Mice were treated with GABA by daily intraperitoneal (i.p.) injection of 20·g GABA per mouse to reach ˜200 μM circulation concentration and PBS as control. The daily treatment is continuously conducted during 60-day experimental period. One wk after the GABA and PBS treatment, diabetes was induced in both groups by i.p.-injection of low-dose streptozotocin (STZ, Sigma Chemical Co., St. Louis, Mo. 40 mg/kg body weight) for 5 consecutive days. The development of hyperglycemia was monitored by measuring blood glucose from the tail vein every third day following STZ injections using an Ascensia ELITE® XL glucose meter. For some studies, overtly diabetic mice induced by STZ and without GABA treatment were divided into two groups: one group started receiving daily i.p. injection of 20·g GABA whereas other group received only PBS. The treatment was continued for 75 days. The handling of the NOD mice were similar to those CD1 mice except the STZ injection. The NOD mice have a susceptibility to spontaneous development of autoimmune T1D. The TCR transgenic 8.3-NOD mice have a markedly accelerated disease (J. Vergdaguer et al, 1997 J Exp Med. 186(10):1663-76).
# Following dewaxing, […] as described previously (Wang Q, Brubaker P L 2002 Diabetologia 45:1263-1273), endogenous peroxidase activity was quenched by incubating sections in 0.3% H2O2 in water for 30 min and antigen retrieval was performed by heating slides in 10 mM sodium citrate buffer, pH 6.0, at ˜70° C. for 30 min. […]
smiles,measurement,setting,value
"NCCCC(=O)O [GABA, gamma-aminobutyric acid]",alpha-cell mass,GABA-treated TCR-NOD mice,largely reserved
same,islet mass / beta-cell mass,GABA-treated TCR-NOD mice,largely reserved
same,pancreatic insulin and GAD65/67 staining,TCR transgenic NOD mice,largely reserved the islet beta-cell mass and the intact association with GAD65; also recorded: reserves insulin and GAD65/67 content
same,development of diabetic hyperglycemia,daily GABA vs saline-treated,completely prevented the development of diabetic hyperglycemia; also recorded: completely prevents diabetic hyperglycemia
same,lymphocytes (T-cell) infiltration in pancreatic islets,vs PBS-treated,dramatically blocked; also recorded: obviously diminished
